Tests used:
GST-XIAP BIR3RING = biological target: T1, GST-XIAP BIR3RING (Homo sapiens, UniProt P98170); test: Fluorescence polarization-based competition assay, XIAP Bir3-RING; type: binding
T1 construct: made in house; host or cells: E. coli DH5-alpha
Description: GST-XIAP BIR3RING: XIAP coding sequence amino acids 246-497 cloned into PGEX2T1 via BamH1 and AVA I. The plasmid was transformed into E. coli DH5α for use in protein expression and purification.
(§1) A fluorescent peptide probe, Fmoc-Ala-Val-Pro-Phe-Tyr(t-Bu)-Leu-Pro-Gly(t-Bu)-Gly-OH was prepared using standard Fmoc chemistry on 2-chlorotrityl chloride resin (Int. J. Pept. Prot. Res. 38:555-561, 1991). Cleavage from the resin was performed using 20% acetic acid in dichloromethane (DCM), which left the side chain still blocked. The C-terminal protected carboxylic acid was coupled to 4′-(aminomethyl)fluorescein (Molecular Probes, A-1351; Eugene, Oreg.) using excess diisopropylcarbodiimide (DIC) in dimethylformamide (DMF) at room temperature and was purified by silica gel chromatography (10% methanol in DCM). The N-terminal Fmoc protecting group was removed using piperidine (20%) in DMF, and purified by silica gel chromatography (20% methanol in DCM, 0.5% HOAc). Finally, the t-butyl side chain protective groups were removed using 95% trifluoroacetic acid containing 2.5% water and 2.5% triisopropyl silane. […] Compound #174 was also used as a fluorescent probe in this assay.
(§2) For all assays, the fluorescence and fluorescence-polarization was evaluated using a Tecan Polarion instrument with the excitation filter set at 485 nm and the emission filter set at 535 nm. For each assay, the concentration of the target protein was first establish by titration of the selected protein in order to produce a linear dose-response signal when incubated alone in the presence of the fluorescent probe. Upon establishing these conditions, the compounds potency (IC50) and selectivity, was assessed in the presence of a fix defined-amount of target protein and fluorescent probe and a 10 point serial dilution of the selected compounds. For each IC50 curve, the assays were run as followed: 25 ul/well of diluted compound in 50 mM MES buffer pH 6.5 were added into a black 96 well plate then 25 ul/well of bovine serum albumin (BSA) at 0.5 mg/ml in 50 mM MES pH 6.5. Auto-fluorescence for each compound was first assessed by performing a reading of the compound/BSA solution alone. Then 25 ul of the fluorescein probe diluted into 50 mM MES containing 0.05 mg/ml BSA were added and a reading to detect quenching of fluorescein signal done. Finally 25 ul/well of the target or control protein (GST-BIRs) diluted at the appropriate concentration in 50 mM MES containing 0.05 mg/ml BSA were added and the fluorescence polarization evaluated.
(§3) For each assay the relative polarization-fluorescence units were plotted against the final concentrations of compound and the IC50 calculated using the Grad pad prism software and/or Cambridge soft. The ki value were derived from the calculated IC50 value as described above and according to the equation described in Nikolovska-Coleska, Z. (2004) Anal Biochem 332, 261-273.
(§4) Compounds exemplified in Table 6 were tested and found to have IC50s in the following ranges: A: >10 μM; B: <10 μM; C: <1 μM using the fluorescence polarization assay, as shown in Table 5. Each of the IC50s was calculated from Graph Pad.

GST-HIAP2 (cIAP-1) BIR 3 = biological target: T2, GST-HIAP2 (cIAP-1) BIR 3 (Homo sapiens, UniProt Q13490); test: Fluorescence polarization-based competition assay, cIAP-1 Bir3; type: binding
T2 construct: made in house; host or cells: E. coli DH5-alpha
Description: GST-HIAP2 (cIAP-1) BIR 3: HIAP2 coding sequence from amino acids 251-363 cloned into PGex4T3 via BamH1 and XhoI. The plasmid was transformed into E. coli DH5α for use in protein expression and purification.
as §1, §2, §3, §4

GST-HIAP1(cIAP-2) BIR 3 = biological target: T3, GST-HIAP1(cIAP-2) BIR 3 (Homo sapiens, UniProt Q13489); test: Fluorescence polarization-based competition assay, cIAP-2 Bir3; type: binding
T3 construct: made in house; host or cells: E. coli DH5-alpha
Description: GST-HIAP1(cIAP-2) BIR 3: HIAP1 coding sequence from amino acids 236-349, cloned into PGex4T3 via BamH1 and XhoI. The plasmid was transformed into E. coli DH5α for use in protein expression and purification.
as §1, §2, §3, §4

[1] = biological target: T4, XIAP Bir3-RING (GST-BIR 3RING) (Homo sapiens, UniProt P98170); test: Caspase de-repression assay using cellular extracts (apoptosome), XIAP Bir3-RING; type: biochemical; conditions: 293 cell S100 extract
T4 construct: made in house; host or cells: E. coli DH5-alpha
Description: 100 ug of 293 cell S100 extract and 0.25 uM-2 uM of GST-Xiap fusion protein (GST-BIR 3RING, GST-linker BIR2 BIR3RING) were co-incubated with serial dilutions of compound (0.02 uM-40 uM). Extracts were activated by adding 1 mM dATP, 0.1 mM ALLN, 133 ug Cytochrome C (final concentrations), and incubating at 37° C. for 25 minutes. All reactions and dilutions used S100 buffer (50 mM Pipes pH 7.0, 50 mM KCl, 0.5 mM EGTA pH 8.0, 2 mM MgCl2 supplemented with 1/1000 dilutions of 2 mg/ml Cytochalisin B, 2, mg/ml Chymotstatin, Leupeptin, Pepstatin, Antipain, 0.1M PMSF, 1M DTT). Final reaction volume was 30 ul. Caspase-3 activity was measured by overlaying 30 ul of a 0.4 mM DEVD-AMC solution. AMC cleavage was measured in a TECAN spectrophotometer at 360 nm excitation and 444 nm emission, on a kinetic cycle of 1 hour with readings taken every 5 minutes. Caspase activity was calculated as Vo of AMC fluorescence/sec. Caspase de-repression by our compounds were compared to fully activated extract and activated extract repressed by the presence of XIAP fusion protein.
Results: Compounds were also tested in the apoptosome assay and the linker-BIR2/caspase-3 inhibition assay and found to have IC50s in the following ranges: A: >10 μM; B: <10 μM; C: <1 μM, as shown in Table 7.

T2 sequence (Q13490 251-363): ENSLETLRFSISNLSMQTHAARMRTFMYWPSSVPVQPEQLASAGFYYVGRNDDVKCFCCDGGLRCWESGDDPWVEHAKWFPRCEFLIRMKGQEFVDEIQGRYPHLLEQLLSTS
T3 sequence (Q13489 236-349): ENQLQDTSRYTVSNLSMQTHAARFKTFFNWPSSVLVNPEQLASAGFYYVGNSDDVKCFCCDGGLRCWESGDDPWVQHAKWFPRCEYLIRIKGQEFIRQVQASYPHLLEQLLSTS
T1 sequence (P98170 246-497): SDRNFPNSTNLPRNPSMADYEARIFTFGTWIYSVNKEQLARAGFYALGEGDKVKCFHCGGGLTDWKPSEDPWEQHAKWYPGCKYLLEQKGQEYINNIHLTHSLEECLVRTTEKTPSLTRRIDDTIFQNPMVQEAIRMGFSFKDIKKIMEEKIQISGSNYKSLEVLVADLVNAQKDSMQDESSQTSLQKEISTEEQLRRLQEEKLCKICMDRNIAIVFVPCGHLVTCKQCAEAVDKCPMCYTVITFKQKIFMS
T4 sequence (P98170 246-497): as above

SMILES | IC50 (GST-XIAP BIR3RING) | IC50 (GST-HIAP2 (cIAP-1) BIR 3) | IC50 (GST-HIAP1(cIAP-2) BIR 3) | IC50 [1]
CC(=O)N(CCCc1ccccc1)C[C@@H]1CCCN1C(=O)[C@@H](NC(=O)[C@H](C)N)C(C)C [Compound 11] | < 10 µM | < 10 µM | < 10 µM | < 1 µM
CN[C@@H](C)C(=O)N[C@H](C(=O)N1CCC[C@H]1CN(CCc1ccccc1)C(=O)[C@@H](C)N)C(C)(C)C [Compound 36] | < 10 µM | < 1 µM | < 1 µM | –
CN[C@@H](C)C(=O)N[C@H](C(=O)N1CCC[C@H]1CN(CCc1ccccc1)C(=O)[C@H](C)N)C(C)(C)C [Compound 37] | < 1 µM | < 1 µM | < 1 µM | –
CN[C@@H](C)C(=O)N[C@H](C(=O)N1CCC[C@H]1CN(CCc1ccccc1)C(=O)CN(C)C)C(C)(C)C [Compound 38] | < 1 µM | < 1 µM | < 1 µM | –
CC[C@H](N)C(=O)N(CCc1ccccc1)C[C@@H]1CCCN1C(=O)[C@@H](NC(=O)[C@H](C)NC)C(C)(C)C [Compound 39] | < 1 µM | < 1 µM | < 1 µM | –
CN[C@@H](C)C(=O)N[C@H](C(=O)N1CCC[C@H]1CN(CCc1ccccc1)C(=O)CNc1ccccc1)C(C)(C)C [Compound 40] | < 1 µM | < 1 µM | < 1 µM | –
CN[C@@H](C)C(=O)N[C@H](C(=O)N1CCC[C@H]1CN(CCc1ccccc1)C(=O)CCCN)C(C)(C)C [Compound 41] | < 10 µM | < 1 µM | < 1 µM | –
CN[C@@H](C)C(=O)N[C@H](C(=O)N1CCC[C@H]1CN(CCc1ccccc1)C(=O)CNC(C)=O)C(C)(C)C [Compound 43] | < 1 µM | < 1 µM | < 1 µM | –
CC[C@@H](N)C(=O)N(CCc1ccccc1)C[C@@H]1CCCN1C(=O)[C@@H](NC(=O)[C@H](C)NC)C(C)(C)C [Compound 46] | < 1 µM | < 1 µM | < 1 µM | –
CN[C@@H](C)C(=O)N[C@H](C(=O)N1CCC[C@H]1CN(CCc1ccccc1)C(=O)c1ccccc1)C(C)(C)C [Compound 47] | < 1 µM | < 1 µM | < 1 µM | –
CN[C@@H](C)C(=O)N[C@@H](CCCN)C(=O)N1CCC[C@H]1CN(CCc1ccccc1)C(=O)CCc1ccccc1 [Compound 49] | < 1 µM | < 1 µM | < 1 µM | –
CN[C@@H](C)C(=O)N[C@H](C(=O)N1CCC[C@H]1CN(CCc1ccccc1)C(=O)[C@H]1CCCN1)C(C)(C)C [Compound 50] | < 1 µM | < 1 µM | < 1 µM | –
CN[C@@H](C)C(=O)N[C@H](C(=O)N1CCC[C@H]1CN(CCc1ccccc1)C(=O)[C@@H]1CCCN1)C(C)(C)C [Compound 51] | < 1 µM | < 1 µM | < 1 µM | –
CN[C@@H](C)C(=O)N[C@H](C(=O)N1CCC[C@H]1CN(CCc1ccccc1)C(=O)[C@H](N)Cc1ccc(OC)cc1)C(C)(C)C [Compound 54] | < 1 µM | < 1 µM | < 1 µM | –
CN[C@@H](C)C(=O)N[C@H](C(=O)N1CCC[C@H]1CN(CCc1ccccc1)C(=O)[C@H](N)Cc1cccnc1)C(C)(C)C [Compound 55] | < 1 µM | < 1 µM | < 1 µM | –
CN[C@@H](C)C(=O)N[C@H](C(=O)N1CCC[C@H]1CN(CCc1ccccc1)C(=O)[C@H](N)Cc1ccncc1)C(C)(C)C [Compound 56] | < 1 µM | < 1 µM | < 1 µM | –

Further lines, results first:

IC50 (GST-XIAP BIR3RING) | IC50 (GST-HIAP2 (cIAP-1) BIR 3) | IC50 (GST-HIAP1(cIAP-2) BIR 3) | IC50 [1] | SMILES
< 1 µM | < 1 µM | < 1 µM | – | CN[C@@H](C)C(=O)N[C@H](C(=O)N1CCC[C@H]1CN(CCc1ccccc1)C(=O)Cc1ccccc1)C(C)(C)C [Compound 57]
< 10 µM | < 1 µM | < 1 µM | – | CN[C@@H](C)C(=O)N[C@H](C(=O)N1CCC[C@H]1CN(CCc1ccccc1)C(=O)[C@H](N)CCc1ccccc1)C(C)(C)C [Compound 58]
< 1 µM | < 1 µM | < 1 µM | – | CN[C@@H](C)C(=O)N[C@H](C(=O)N1CCC[C@H]1CN(C[C@@H](C)c1ccccc1)C(=O)OCc1ccccc1)C(C)(C)C [Compound 59]
< 1 µM | < 1 µM | < 10 µM | – | CN[C@@H](C)C(=O)N[C@H](C(=O)N1CCC[C@H]1CN(C[C@H](C)c1ccccc1)C(=O)OCc1ccccc1)C(C)(C)C [Compound 60]
< 1 µM | < 1 µM | < 1 µM | – | C#CCOC[C@H](NC(=O)[C@@H](N)CO)C(=O)N1CCC[C@H]1CN(CCc1ccccc1)C(=O)C(F)(F)F [Compound 61]
< 10 µM | < 10 µM | > 10 µM | – | CC(C)[C@H](NC(=O)[C@H](C)N)C(=O)N1CCC[C@H]1COCc1ccccc1 [Compound 63]
< 10 µM | < 10 µM | < 10 µM | – | C[C@H](N)C(=O)N[C@H](C(=O)N1CCC[C@H]1COCc1ccccc1)C(C)(C)C [Compound 64]
< 1 µM | < 1 µM | < 1 µM | – | CC(C)[C@H](NC(=O)[C@H](C)N)C(=O)N1CCC[C@H]1CN(CCCCOC(=O)c1ccccc1)CCc1ccccc1 [Compound 65]
< 10 µM | < 10 µM | < 10 µM | – | CC(C)[C@H](NC(=O)[C@H](C)N)C(=O)N1CCC[C@H]1CSCCc1ccccc1 [Compound 66]
> 10 µM | < 10 µM | < 10 µM | – | CC(C)[C@H](NC(=O)[C@H](C)N)C(=O)N1CCC[C@H]1CS(=O)(=O)CCc1ccccc1 [Compound 67]
< 1 µM | < 1 µM | < 1 µM | – | CN[C@@H](C)C(=O)N[C@H](C(=O)N1CCC[C@H]1CN(CCc1ccccc1)S(=O)(=O)Cc1ccccc1)C(C)(C)C [Compound 68]
< 1 µM | < 1 µM | < 1 µM | – | CN[C@@H](C)C(=O)N[C@H](C(=O)N1CCC[C@H]1CN(CCc1ccccc1)S(=O)(=O)c1ccccc1)C(C)(C)C [Compound 69]

— patent US7772177B2, “BIR domain binding compounds” (Aegera Therapeutics, Inc., priority 2005, dated 2010)
